In one data set the test system is astrocytes cultures. The data set is described as follows: ROS formation (H2DCF-DA kit). Format: cell-based, mouse. The note with it: various concentrations, 2 h. The protocol:
ROS formation has been determined as described [Yang J et al, Lactate promotes plasticity gene expression by potentiating NMDA signalling in neurons. Proc Natl Acad Sci USA. 2014. 111(33):12228-33] using a H2DCF-DA kit (ThermoFisher) as recommended by the manufacturer. Briefly, astrocytes cultures were washed twice with HBSS and incubated for 60 min in 50 μM in HBSS at 37° C. and 5% CO2 in the presence of the dye. After two washing steps with prewarmed HBSS the cells were treated with increasing concentrations of 100 μL Compound A at 37° C. and 5% CO2. Fluorescence intensity was measured after 2 h from the same plate using a fluorescence microplate reader (Safire 2; Tecan) at an excitation wavelength of 485 nm and an emission wavelength of 528 nm.
To assess the effect of Compound A on ROS accumulation in primary neuron cultures, the cells were treated with various concentration of Compound A for 2 hours and ROS was measured as described (FIG. 4).

Data set [1] deals with cortical neurons with MPP+ lesion. Briefly: MPP+ induced apoptosis in cortical neurons (YO-PRO-1). The settings on record: 0.5 and 1 μM, 24 h MPP+ lesion. Format: cell-based, mouse. As to the method: Mouse cortical neurons were prepared as described. At DIV8 cells were treated with the test and control MK801 compounds for 1 h, before the addition of MPP+(Sigma, D048) at a final concentration of 100-200 μM. The experiment was carried out with n=6 technical replicates per condition, vehicle and MPP+ alone controls were included. After 8 h determination of ROS was conducted and after 24 h of MPP+ lesion on DIV9 cells were subject to the apoptosis measurement. Apoptosis was determined using YO-PRO™-1 Iodide (Invitrogen; Y3603). Part of supernatant of the cultivated cells was removed and 10 μL of a 50 μM YO-PRO 1 solution in PBS is added to the remaining 90 μL to result in a final concentration of 5 μM YO-PRO 1 in well. Incubation for 15 min in the incubator at 37° C. was performed (light protected) followed by discarding the supernatant. 140 μL PBS was added to each well and the fluorescence was measured using a plate-reader (Cytation 5, BioTek) at excitation wavelength 485 nm to Emission wavelength 535 nm.

For data set [2], the system named is human hepatocytes from pooled donor lot. Briefly: Hepatic toxicity: cytotoxicity by LDH leakage. It counts as cell-based. The settings on record: 1 to 100 μM, 24 h exposure. As to the method:
Cryopreserved human hepatocytes from pooled donor lot (Bioreclamation IVT) were seeded on collagen I coated 96-well plates (Corning Biocoat) at 0.55×10^5 cells per well in 120 μl InVitroGRO™ CP medium (BioIVT), including additives Torpedo Antibiotic mix (BioIVT). After cell attachment (4-6 hours post seeding) cell culture medium was replaced with fresh medium and incubated for 72 hours at 37° C. under 5% CO2. Thereafter, hepatocytes were exposed to test or control compounds in 100 μl of InVitroGRO™ HI medium, including additives Torpedo Antibiotic mix at concentrations presented below. Cytotoxicity and cell viability were evaluated based on LDH release in medium and ATP content in the cells after 24 hours exposure phase.
Cytotoxicity potency of test compounds SND118, SND121, SND122 and SND123 was assayed in human hepatocytes from pooled donor lot at three concentrations; 1, 10 and 100 μM. Cytotoxicity was assayed from medium samples after 24 h exposure period with test compounds by measuring membrane integrity (LDH leakage), coupled to fluorescent signal. In parallel, cell viability was assayed by the means of ATP content, indicating the metabolically competent cell activity. LDH and ATP assay kits were sourced from Promega. ATP content was measured based on luciferase catalysed reaction generating stable bioluminescent signal. […]

`O=c1cc(-c2ccc(CCCC[P+](c3ccccc3)(c3ccccc3)c3ccccc3)cc2)oc2c(O)c(O)ccc12` [SND118, 4-[4-(7,8-dihydroxy-4-oxo-chromen-2-yl)phenyl]butyltriphenylphosphonium bromide]: the ROS accumulation result in the data set on astrocytes cultures is “decrease in ROS accumulation”. Besides, the “apoptosis induced by MPP+ (YO-PRO-1)” value in data set [1] was “significantly inhibited apoptosis”. In data set [2], the “Cytotoxicity (LDH leakage)” value was 7-10%.

(Values after patent US20220411448A1, “CHROMENE-4-ONE DERIVATIVES AS BRAIN-DERIVED NEUROTROPHIC FACTOR (BDNF) MIMETICS” (FLORATEK PHARMA AG, priority 2019, published 2022).)
